The source of these data is patent US20240415781A1, “PYROPTOSIS-TRIGGERING LIPID NANOPARTICLE” (NEW JERSEY INSTITUTE OF TECHNOLOGY, priority 2023, published 2024).

The structures appear in SMILES notation.

A short description of the test: Ionizable cationic lipid library screen, in vitro delivery of luciferase mRNA (mLuc). The class given is cell-based. As to conditions: 18*8 library, LNPs with DOPE, cholesterol, DMG-PEG. The text has this: In some embodiments, an ionizable cationic lipid is generally composed of three parts: (1) one or more hydrophilic headgroups containing one or multiple ionizable amines for condensing negatively charged mRNA; (2) one or more hydrophobic hydrocarbon chains capable of promoting self-assembly and phospholipid membrane fusion; and (3) one or more degradable ester linkers connecting the headgroups with the hydrocarbon chains to potentially lower systemic cytotoxicity, as shown in FIG. 9B. In some embodiments, a new library of ionizable cationic lipids is provided, with ionizable amine headgroups derived from different amino alcohols and hydrocarbon lipid chains derived from commercially available lipid acids. In some embodiments, using CALB enzyme-assisted reaction, the hydroxyl groups were reacted with carboxylic acids via one-step high-efficiency esterification, as shown in FIG. 9A. An 18*8 library of lipid-like materials was synthesized by varying amino alcohols and lipid acids. These lipid-like materials with DOPE, cholesterol, and DMG-PEG were fabricated at a molar ratio of 50:10:38.5:1.5, which was a widely used formulation to form LNPs and delivered luciferase encoded mRNA (mLuc) in vitro to generate a luciferase expression heat map of lipid-like materials. […]

`CCCCC/C=C\C/C=C\CCCCCCCC(=O)OCCN1CCN(CCOC(=O)CCCCCCC/C=C\C/C=C\CCCCC)CC1` [AA3-DLin]: the “rank in luciferase expression screen of lipid-like materials” value is given as “top-performing”.
